From US20230404913A1, “PHARMACEUTICAL FORMULATIONS FOR TREATING DISEASES ASSOCIATED WITH VOLTAGE-GATED SODIUM CHANNELS” (Xenon Pharmaceuticals, Inc., priority 2020, published 2023)
Read-outs that look alike come from different tables or passages of the source.

How the values were obtained:
[1] = Pharmacokinetic study, 3-period crossover, plasma concentrations of Compound A by LC-MS/MS; type: in vivo, human; conditions: for AUC(0-inf) / AUC(0-t): human, plasma, oral, 50 mg, pediatric formulation, 50 mg single dose; for AUC(0-inf): read-out: AUC0-inf, mean; for AUC(0-t): read-out: AUC0-t, mean
Method: (§1) In this single center, open-label, randomized study, 24 subjects (8 per each arm) received Compound A adult immediate release tablet or granular formulation suitable for reconstitution formulation in a fasted or fed state (high fat meal) in a 3-period, 3-sequence crossover design. Compound A was formulated as a granular formulation suitable for reconstitution (“Compound A pediatric formulation”) as described herein.
(§2) A 50 mg dose was used in this adult PK study.
For each study period, subjects received one of the 3 following treatments:
(§3) Treatment A: Single doses of 50 mg Compound A pediatric formulation (1 sachet of granules) under fed conditions.
(§4) Treatment B: Single doses of 50 mg Compound A pediatric formulation (1 sachet of granules) under fasting conditions.
(§5) Treatment C: Single doses of 50 mg Compound A adult tablet formulation (1×50 mg IR tablet) under fasting conditions.
Three groups of 8 subjects were randomized to one of the following 3 sequences.
Following an overnight fast of at least 10 hours, subjects received a standardized high-fat, high calorie meal 30 minutes before administration. Subjects must have eaten the total content of this meal in 30 minutes or less.
Thirty minutes after the start of breakfast, subjects were administered the suspension (the contents of one sachet of the Compound A pediatric formulation [granules for oral suspension] was mixed thoroughly with 120 mL of water at ambient temperature). Thereafter, the glass was rinsed twice with approximately 60 mL of water at ambient temperature and the subject was asked to drink the 60 mL of suspension each time. A total of approximately 240 mL of water was administered with the formulation within 5 minutes.
Additional food was then withheld for at least 4 hours following administration. Water was provided as needed until 1 hour pre-dose. Water was allowed beginning 1 hour after the administration of the drug.
Subjects fasted overnight for a minimum of 10 hours prior to dosing.
Subjects were administered the Compound A suspension (the contents of one sachet [granules for oral suspension] was mixed thoroughly with 120 mL of water at ambient temperature). Thereafter, the glass was rinsed twice with approximately 60 mL of water at ambient temperature and the subject was asked to drink the 60 mL of suspension each time. A total of approximately 240 mL of water was administered with the formulation within 5 minutes.
Fasting continued for at least 4 hours following Compound A administration. Water was provided as needed until 1 hour pre-dose. Water was allowed beginning 1 hour after the administration of the drug.
A single dose of the Compound A IR tablet was administered with approximately 240 mL of water, starting at 09:00, to 1 subject per 2 minute intervals.
Fasting continued for at least 4 hours following administration. Water was provided as needed until 1 hour pre-dose. Water was allowed beginning 1 hour after the administration of the drug.
Serial PK samples were obtained pre-dose and at specific timepoints through 48 h post-dose Plasma concentrations of Compound A were determined using validated liquid chromatography with tandem mass spectrometry method.

[2] = Pharmacokinetic study, urinary excretion of unchanged Compound A; type: in vivo, human; conditions: for CL renal: human, urine, oral, 50 mg
Method: as §1, §2, §3, §4, §5
Overall (based on data from Cohorts 1 and 2), the fraction excreted in urine is less than 0.1%, thus the contribution of the urinary excretion in the disposition and elimination of the Compound A as a parent compound is negligible. The PK and statistical analysis were performed including all subjects with measurable pre-dose concentrations.

[3] = pediatric formulation 50 mg, fed vs fasted

Cc1cc(S(=O)(=O)Nc2cscn2)c(F)cc1N(C)[C@H]1CCN(Cc2ccccc2)C1 [Compound A, (S)-4-((1-benzylpyrrolidin-3-yl)(methyl)amino)-2-fluoro-5-methyl-N-(thiazol-4-yl)benzenesulfonamide]
AUC(0-inf) ([1]; fasting): 11300 ng·h/mL | AUC(0-t) ([1]; fasting): 11100 ng·h/mL | AUC(0-inf) ([1]; fed (high-fat meal)): 11800 ng·h/mL | AUC(0-t) ([1]; fed (high-fat meal)): 11700 ng·h/mL | intra-subject CV % for AUC0-inf [1, 3]: 9% | intra-subject CV % for AUC0-t [1, 3]: 11% | GMR for AUC0-inf ([1]; pediatric formulation 50 mg, fed vs fasted, 90% CI 97.98-107.58%): 102.67% | GMR for AUC0-t ([1]; pediatric formulation 50 mg, fed vs fasted, 90% CI 98.23-109.57%): 103.74% | CL renal ([2]; pediatric formulation 50 mg, fasting): 0.05 mL/min | CL renal ([2]; pediatric formulation 50 mg, fed): 0.055 mL/min | fraction excreted in urine ([2]; overall, based on data from Cohorts 1 and 2): less than 0.1% | GMR for CLr ([2]; pediatric formulation 50 mg, fed vs fasting): 115.56%
